≈ marks a conversion by molar mass, not a printed value. Square brackets hold non-standard residues; d marks the D form. Peptide text beside a SMILES is read from it. Nspe = C[C@H](NCC(=O)O)c1ccccc1; Nlys = NCCCCNCC(=O)O
How the values were obtained:
NIH 3T3 cells = test: Metabolic activity, MTS assay; assay type: cell-based, mouse
Description: NIH 3T3 mouse fibroblast cells were cultured in complete Dulbecco’s Modified Eagle’s Media. A peptoid solution plate (100 µL per well) was prepared by serial dilution of aqueous peptoid stock solutions in Hank’s balanced salt solution. A day-old cell monolayer was washed thoroughly with Hank’s balanced salt solution and replenished with 100 µL Hank’s balanced salt solution per well. Peptoid solutions were transferred onto the day-old cell monolayers, which contained approximately 5000 cells per well. […] The average of six replicate trials is reported.

erythrocytes = test: Hemolytic activity (HD10/HD50); assay type: cell-based
Source text: Table 1 Characteristics of antimicrobial peptoids, screened for activity against B. subtilis and E. coli bacterial strains. | column: HD10 / HD50

[1] = tested on: K. pneumonia 63575 (ESBL); test: microbe, parasite or virus in culture
Description: (§1) The MICs of test agents were measured using a modified broth micro-dilution method in Difco Mueller Hinton medium, on a panel of bacterial pathogens that were both susceptible and resistant to common antibiotics (S1 File). Briefly, serial dilutions were performed in 0.01% acetic acid containing 0.2% bovine serum albumin at 10-fold the desired final concentration. Ten μL of the 10-fold concentrated test reagents were added to each well of a 96-well polypropylene microtitre plate containing 90 μL of Mueller Hinton media per well. Bacteria were added to the plate from an overnight culture at a final concentration of 2–7 x 10^5 CFU/mL and incubated overnight at 37°C. The MIC is defined as the concentration at which no growth was observed.
(§2) Screening of peptoid antimicrobial activity against a panel of multidrug resistant superbugs was done according to the protocol described in the manuscript. The bacterial strains used in this panel included; P. aeruginosa PAO1 strain H103 [1], P. maltophilia ATCC#13637, S. aureus ATCC#25923 [1], E. faecalis ATCC#29212 [2], and E. cloacae 218R, constitutively expressing Class C chromosomal β-lactamase, were from the Hancock lab strains collection. An MRSA clinical isolate was kindly provided by Anthony Chow (Vancouver General Hospital, Vancouver, Canada). Two Klebsiella pneumoniae and two E. coli clinical isolates expressing extended spectrum β-lactamases (ESBL) were kindly provided by George Zhanel (Health Sciences Centre, Winnipeg, Canada). Vancomycin-resistant clinical isolates of Enterococcus faecalis and E. faecium were obtained from Ana M. Paccagnella (BC Centre for Disease Control, Vancouver, Canada). Three clinical isolates (#9, #198 and #213) of multi-drug resistant P. aeruginosa, were kindly provided by Carlos Kiffer (University of São Paulo, Brazil). […] Three P. aeruginosa clinical isolates of the Liverpool epidemic strain (LES) (H1027, H1030 and LES400) were all kindly provided by Craig Winstanley (University of Liverpool, UK). […] All tested bacterial strains were categorized as biohazard level 2 pathogens.

P. aeruginosa 9 (MDR) = test: microbe, parasite or virus in culture; conditions: 9 (MDR)
Description: as §1, §2

E. faecalis W61950 (VRE) = test: microbe, parasite or virus in culture; conditions: W61950 (VRE)
Description: as §1, §2

E. faecalis ATCC29212 = test: microbe, parasite or virus in culture; conditions: ATCC29212
Description: as §1, §2

[2] = tested on: P. aeruginosa H103 (wild type); test: microbe, parasite or virus in culture; conditions: H103 (wild type)
Description: as §1, §2

[3] = tested on: K. pneumonia 61962 (ESBL); test: microbe, parasite or virus in culture
Description: as §1, §2

[4] = tested on: P. aeruginosa H1030 (MDR); test: microbe, parasite or virus in culture; conditions: P. aeruginosa H1030 (MDR)
Description: as §1, §2

E. faecium T62764 (VRE) = test: microbe, parasite or virus in culture; conditions: T62764 (VRE)
Description: as §1, §2

[5] = tested on: E. cloacae 218R Class C β-lactamase; test: microbe, parasite or virus in culture; conditions: 218R Class C β-lactamase
Description: as §1, §2

P. aeruginosa 198 (MDR) = test: microbe, parasite or virus in culture; conditions: 198 (MDR)
Description: as §1, §2

S. aureus C623 (MRSA) = test: microbe, parasite or virus in culture; conditions: C623
Description: as §1, §2

P. maltophilia ATCC13637 = test: microbe, parasite or virus in culture; conditions: ATCC13637
Description: as §1, §2

E. coli 63103 (ESBL) = test: microbe, parasite or virus in culture; conditions: 63103 (ESBL)
Description: as §1, §2

E. faecium mic80 (VRE) = test: microbe, parasite or virus in culture; conditions: mic80 (VRE)
Description: as §1, §2

E. coli 64771 (ESBL) = test: microbe, parasite or virus in culture; conditions: 64771 (ESBL)
Description: as §1, §2

[6] = tested on: P. aeruginosa LES400 (MDR); test: microbe, parasite or virus in culture; conditions: LES400 (MDR)
Description: as §1, §2

P. aeruginosa 213 (MDR) = test: microbe, parasite or virus in culture; conditions: 213 (MDR)
Description: as §1, §2

E. faecalis F43559 (VRE) = test: microbe, parasite or virus in culture; conditions: F43559 (VRE)
Description: as §1, §2

S. aureus ATCC25923 = test: microbe, parasite or virus in culture; conditions: ATCC25923
Description: as §1, §2

[7] = tested on: P. aeruginosa H1027 (MDR); test: microbe, parasite or virus in culture; conditions: H1027 (MDR)
Description: as §1, §2

E. coli ATCC 35218 = assay type: cell-based
Description: MICs against B. subtilis and E. coli screening bacterial strains were determined using serial dilution in 96-well microtiter plates in accordance with CLSI M7-A6 protocols. Briefly, peptoid solution in cation-adjusted Mueller-Hinton broth was prepared by 2:1 serial dilution with a total volume of 50 µL per well. In experimental wells, 50 µL of bacterial inoculums (1 x 10^6 CFU/mL) were added to the peptoid solutions. Positive controls consisted of 50 µL inoculums added to 50 µL cation-adjusted Mueller-Hinton broth containing no peptoid, while negative controls contained only cation-adjusted Mueller-Hinton broth. […] Experiments were reproducible among three independent replicates, each consisting of two parallel trials.

SMILES | HD10 (hemolytic activity) (erythrocytes) | HD50 (hemolytic activity) (erythrocytes) | MIC [1] [µg/mL] | MIC (P. aeruginosa 9 (MDR)) [µg/mL] | MIC (E. faecalis W61950 (VRE)) [µg/mL] | MIC (E. faecalis ATCC29212) [µg/mL] | MIC [2] [µg/mL] | MIC [3] [µg/mL] | MIC [4] [µg/mL] | MIC (E. faecium T62764 (VRE)) [µg/mL] | MIC [5] [µg/mL] | MIC (P. aeruginosa 198 (MDR)) [µg/mL] | MIC (S. aureus C623 (MRSA)) [µg/mL] | MIC (P. maltophilia ATCC13637) [µg/mL] | MIC (E. coli 63103 (ESBL)) [µg/mL] | MIC (E. faecium mic80 (VRE)) [µg/mL] | MIC (E. coli 64771 (ESBL)) [µg/mL] | MIC [6] [µg/mL] | MIC (P. aeruginosa 213 (MDR)) [µg/mL] | MIC (E. faecalis F43559 (VRE)) [µg/mL] | also measured
C[C@H](NCC(=O)N(CCCCN)CC(=O)N(CC(=O)N(CCCCN)CC(=O)N(CCCCN)CC(=O)N(CCCCN)CC(=O)N(CC(=O)N(CCCCN)CC(=O)N(CC(=O)N(CCCCN)CC(=O)N(CCCCN)CC(=O)N(CC(=O)N(CC(=O)N(CCCCN)CC(=O)N(CC(N)=O)[C@@H](C)c1ccccc1)[C@@H](C)c1ccccc1)[C@@H](C)c1ccccc1)[C@@H](C)c1ccccc1)[C@@H](C)c1ccccc1)[C@@H](C)c1ccccc1)c1ccccc1 [1B15mer-NLys4,6,10, H-(Nspe-NLys)2-NLys2-(Nspe-NLys)2-NLys-Nspe2-NLys-Nspe-NH2] (H-[Nspe][Nlys][Nspe][Nlys][Nlys][Nlys][Nspe][Nlys][Nspe][Nlys][Nlys][Nspe][Nspe][Nlys][Nspe]-NH2) | >200 / >200 | >200 / >200 | – | – | – | – | – | – | – | – | – | – | – | – | – | – | – | – | – | – | ID50 (inhibitory dose, metabolic activity) (NIH 3T3 cells): 40 µM
C[C@@H](c1ccccc1)N(CC(N)=O)C(=O)CN(C(=O)CN(CCCCN)C(=O)[C@@H]1CCCN1C(=O)CN(C(=O)CN(CCCCN)C(=O)CN(C(=O)CN(C(=O)CN(CCCCN)C(=O)CN(C(=O)CN(C(=O)CNCCCCN)[C@@H](C)c1ccccc1)[C@@H](C)c1ccccc1)[C@@H](C)c1ccccc1)[C@@H](C)c1ccccc1)[C@@H](C)c1ccccc1)[C@@H](C)c1ccccc1 [Peptoid 1-Pro9, H-(NLys-Nspe2)2-NLys-Nspe-L-Pro-(NLys-Nspe2)-NH2] (H-[Nlys][Nspe][Nspe][Nlys][Nspe][Nspe][Nlys][Nspe]P[Nlys][Nspe][Nspe]-NH2) | 165 | > 200 | 64 (≈ 36.5 µM) | 256 (≈ 146 µM) | 32 (≈ 18.2 µM) | 16 (≈ 9.12 µM) | 8 (≈ 4.56 µM) | 128 (≈ 72.9 µM) | 32 (≈ 18.2 µM) | 2 (≈ 1.14 µM) | 32 (≈ 18.2 µM) | 32 (≈ 18.2 µM) | 8 (≈ 4.56 µM) | 2 (≈ 1.14 µM) | 32 (≈ 18.2 µM) | 8 (≈ 4.56 µM) | 8 (≈ 4.56 µM) | 16 (≈ 9.12 µM) | 16 (≈ 9.12 µM) | 8 (≈ 4.56 µM) | MIC (S. aureus ATCC25923): 8 µg/mL (≈ 4.56 µM); MIC [7]: 2 µg/mL (≈ 1.14 µM); MIC E. coli (E. coli ATCC 35218): 12.5 µM (≈ 21.9 µg/mL)
C[C@@H](c1ccccc1)N(CC(N)=O)C(=O)CN(C(=O)CN(CCCCN)C(=O)CN(Cc1ccccc1)C(=O)CN(Cc1ccccc1)C(=O)CN(CCCCN)C(=O)CN(C(=O)CN(C(=O)CN(CCCCN)C(=O)CN(Cc1ccccc1)C(=O)CN(Cc1ccccc1)C(=O)CNCCCCN)[C@@H](C)c1ccccc1)[C@@H](C)c1ccccc1)[C@@H](C)c1ccccc1 [1-Npm2,3,8,9, H-(NLys-Npm-Npm-NLys-Nspe-Nspe)2-NH2] | 39 | > 200 | 16 (≈ 9.07 µM) | 64 (≈ 36.3 µM) | 8 (≈ 4.54 µM) | 4 (≈ 2.27 µM) | 4 (≈ 2.27 µM) | 32 (≈ 18.1 µM) | 16 (≈ 9.07 µM) | 1 (≈ 0.567 µM) | 8 (≈ 4.54 µM) | 8 (≈ 4.54 µM) | 2 (≈ 1.13 µM) | 1 (≈ 0.567 µM) | 8 (≈ 4.54 µM) | 4 (≈ 2.27 µM) | 4 (≈ 2.27 µM) | 4 (≈ 2.27 µM) | 4 (≈ 2.27 µM) | 8 (≈ 4.54 µM) | MIC (S. aureus ATCC25923): 2 µg/mL (≈ 1.13 µM); MIC [7]: 2 µg/mL (≈ 1.13 µM); MIC E. coli (E. coli ATCC 35218): 6.3 µM (≈ 11.1 µg/mL)

— paper PMC4744035, “In Vivo, In Vitro, and In Silico Characterization of Peptoids as Antimicrobial Agents” (PLoS ONE, 2016)
